Measurements taken from patent US10099993B2, “Metabotropic glutamate receptor positive allosteric modulators (PAMS) and uses thereof” (Sanford-Burnham Medical Research Institute, priority 2014, dated 2018).

Columns and labels:
mGlu2 = mGlu2 (Rattus norvegicus (Rat), UniProt P31421); test: mGlu2 GIRK thallium flux assay; conditions: for EC50: read-out: mGlu2 PAM EC50, PAM mode, test compound, then EC20 glutamate […] later in the presence of thallium, mean ± SEM, at least three experiments; for Emax: read-out: mGlu2 PAM Max;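 on all read-outs here: Cell-based assay, rate of fluorescence rise right after thallium plus agonist addition read on a kinetic imaging plate reader, normalized to vehicle and maximal agonist control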
Sequence of mGlu2 (P31421 19-872): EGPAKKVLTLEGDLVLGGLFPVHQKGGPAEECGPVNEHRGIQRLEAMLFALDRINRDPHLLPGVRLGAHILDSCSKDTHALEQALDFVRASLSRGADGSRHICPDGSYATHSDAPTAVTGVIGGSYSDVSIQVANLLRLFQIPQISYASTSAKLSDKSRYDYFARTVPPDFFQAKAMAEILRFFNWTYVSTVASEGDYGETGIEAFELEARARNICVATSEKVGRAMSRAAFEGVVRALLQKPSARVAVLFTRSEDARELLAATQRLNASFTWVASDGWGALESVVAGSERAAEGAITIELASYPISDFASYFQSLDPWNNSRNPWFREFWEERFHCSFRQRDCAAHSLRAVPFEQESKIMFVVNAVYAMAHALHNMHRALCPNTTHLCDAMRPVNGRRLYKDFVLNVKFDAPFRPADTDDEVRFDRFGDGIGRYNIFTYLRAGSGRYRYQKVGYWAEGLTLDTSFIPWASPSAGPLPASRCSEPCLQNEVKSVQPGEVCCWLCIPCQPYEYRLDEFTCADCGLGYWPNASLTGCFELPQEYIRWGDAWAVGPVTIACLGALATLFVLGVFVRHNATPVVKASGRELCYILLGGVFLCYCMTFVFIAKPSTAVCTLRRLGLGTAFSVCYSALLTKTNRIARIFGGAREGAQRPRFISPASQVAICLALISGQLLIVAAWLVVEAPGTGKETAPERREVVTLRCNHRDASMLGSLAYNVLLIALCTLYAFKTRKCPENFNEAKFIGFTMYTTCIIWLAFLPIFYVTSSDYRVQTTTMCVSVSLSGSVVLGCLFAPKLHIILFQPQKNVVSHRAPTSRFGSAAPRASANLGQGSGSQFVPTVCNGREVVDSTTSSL

mGlu3 = mGlu3 (Rattus norvegicus (Rat), UniProt P31422); test: mGlu3 GIRK thallium flux assay; conditions: for EC50: read-out: mGlu3 PAM EC50, PAM mode, test compound, then EC20 glutamate […] later in the presence of thallium, mean ± SEM; for Emax: read-out: mGlu3 PAM Max;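 on all read-outs here: kinetic fluorescence slope read shortly after thallium plus agonist addition, scaled between vehicle and maximal agonist control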
Sequence of mGlu3 (P31422 23-879): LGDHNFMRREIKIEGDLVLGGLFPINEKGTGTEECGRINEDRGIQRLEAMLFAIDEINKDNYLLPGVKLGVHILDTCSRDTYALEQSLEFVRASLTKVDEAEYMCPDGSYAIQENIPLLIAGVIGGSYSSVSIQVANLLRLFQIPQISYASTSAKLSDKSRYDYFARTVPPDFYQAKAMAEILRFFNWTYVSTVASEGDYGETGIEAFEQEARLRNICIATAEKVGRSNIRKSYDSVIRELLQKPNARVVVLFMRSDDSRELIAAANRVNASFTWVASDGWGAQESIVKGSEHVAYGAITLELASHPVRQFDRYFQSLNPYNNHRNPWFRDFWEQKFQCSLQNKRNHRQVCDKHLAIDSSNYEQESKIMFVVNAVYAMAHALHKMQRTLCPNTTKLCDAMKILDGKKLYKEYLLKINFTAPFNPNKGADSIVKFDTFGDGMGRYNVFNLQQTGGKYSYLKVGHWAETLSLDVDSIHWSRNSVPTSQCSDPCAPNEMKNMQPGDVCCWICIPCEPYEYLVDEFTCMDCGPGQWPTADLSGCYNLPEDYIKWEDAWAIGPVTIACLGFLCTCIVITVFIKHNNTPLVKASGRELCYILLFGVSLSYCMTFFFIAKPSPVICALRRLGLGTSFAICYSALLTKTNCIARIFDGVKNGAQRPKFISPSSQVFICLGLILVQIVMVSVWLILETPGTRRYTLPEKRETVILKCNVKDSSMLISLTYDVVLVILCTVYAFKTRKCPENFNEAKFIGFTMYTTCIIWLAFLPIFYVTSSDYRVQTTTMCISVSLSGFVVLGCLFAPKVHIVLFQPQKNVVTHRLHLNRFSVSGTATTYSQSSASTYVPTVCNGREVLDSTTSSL

Cc1c(OCc2cccc(-c3cnc(C(=O)O)cn3)c2)ccc(C(=O)CC(C)(C)C)c1O [Compound 181, 5-(3-((4-(3,3-Dimethylbutanoyl)-3-hydroxy-2-methylphenoxy)methyl)phenyl)pyrazine-2-carboxylic acid]
EC50 (mGlu2): 2.134 ± 0.008 µM
Emax (mGlu2): 105 ± 3.4%
EC50 (mGlu3): 4.28 ± 0.064 µM
Emax (mGlu3): 106 ± 2.1%

Cc1c(OCCCCOc2ccccn2)ccc(C(=O)CC(C)C)c1C [Compound 183]
EC50 (mGlu2): > 10 µM
EC50 (mGlu3): > 30 µM

Cc1c(OCCCCSc2ccccn2)ccc(C(=O)CC(C)C)c1O [Compound 184]
EC50 (mGlu2): > 10 µM
EC50 (mGlu3): > 30 µM

Cc1c(OCCCCOc2ccccn2)ccc(C(=O)CC(C)C)c1O [Compound 185]
EC50 (mGlu2): 2.79 ± 0.102 µM
Emax (mGlu2): 66.3 ± 0.6%
EC50 (mGlu3): > 30 µM
Emax (mGlu3): 22.4 ± 4.3%

Cc1c(OCCCCOc2ccccn2)ccc(C(=O)CC2CCCC2)c1O [Compound 186]
EC50 (mGlu2): > 10 µM
EC50 (mGlu3): > 30 µM

Cc1c(OCCCCOCc2cccc(-c3cccc(C(=O)O)c3)c2)ccc(C(=O)CC(C)(C)C)c1O [Compound 187, 3′-((4-(4-(3,3-Dimethylbutanoyl)-3-hydroxy-2-methylphenoxy)butoxy)methyl)-[1,1′-biphenyl]-3-carboxylic acid]
EC50 (mGlu2): 1.57 ± 0.297 µM
Emax (mGlu2): 93.4 ± 3.4%
EC50 (mGlu3): 3.07 ± 0.632 µM
Emax (mGlu3): 74.1 ± 7.8%

Cc1c(OCCCCSc2ccncc2)ccc(C(=O)CC2CCCC2)c1C [Compound 188]
EC50 (mGlu2): > 30 µM
EC50 (mGlu3): > 30 µM

Cc1c(OCCCCSc2ccncc2)ccc(C(=O)CC(C)C)c1C [Compound 189]
EC50 (mGlu2): > 30 µM
EC50 (mGlu3): > 30 µM

CCCc1c(OCCCCOc2ccc(C(=O)O)cc2OC)ccc(C(C)=O)c1O [Compound 190, 4-(4-(4-Acetyl-3-hydroxy-2-propylphenoxy)butoxy)-3-methoxybenzoic acid]
Emax (mGlu2): 64.9 ± 5.1%
Emax (mGlu3): 12.1 ± 12.8%

CCCc1c(OCCCCOc2ccc(C(=O)O)cc2C)ccc(C(C)=O)c1O [Compound 191, 4-(4-(4-Acetyl-3-hydroxy-2-propylphenoxy)butoxy)-3-methylbenzoic acid]
Emax (mGlu2): 43.8 ± 5.4%
Emax (mGlu3): 0.1 ± 7.7%

CC(C)(C)CC(=O)c1ccc(OCc2cccc(-c3cccc(C(=O)O)c3)c2)c(I)c1O [Compound 192, 3′-((4-(3,3-Dimethylbutanoyl)-3-hydroxy-2-iodophenoxy)methyl)-[1,1′-biphenyl]-3-carboxylic acid]
Emax (mGlu2): 82 ± 5.1%
Emax (mGlu3): 62.6 ± 9.7%

CC(C)(C)CC(=O)c1ccc(OCc2cccc(-c3cccc(C(=O)O)c3)c2)c(Br)c1O [Compound 193, 3′-((2-Bromo-4-(3,3-dimethylbutanoyl)-3-hydroxyphenoxy)methyl)-[1,1′-biphenyl]-3-carboxylic acid]
Emax (mGlu2): 79.5 ± 20.8%
Emax (mGlu3): 74 ± 9.5%

Cc1c(OCCCCOc2ccccn2)ccc(C(=O)CC2CCCC2)c1C [Compound 194]
EC50 (mGlu2): > 10 µM
EC50 (mGlu3): > 30 µM

Cc1c(OCCCCOc2ccc(C#N)cc2)ccc(C(=O)CC2CCCC2)c1C [compound 76]
EC50 (mGlu2): > 30 µM
EC50 (mGlu3): > 30 µM

Cc1c(OCCCCOc2ccc(C#N)cc2)ccc(C(=O)CC(C)C)c1C [compound 77]
EC50 (mGlu2): > 30 µM
EC50 (mGlu3): > 30 µM

COC(=O)CCc1cc(OCCCCOc2ccc(C(=O)CC(C)C)c(O)c2C)ccc1O [compound 85]
EC50 (mGlu2): > 10 µM
EC50 (mGlu3): > 30 µM

COC(=O)CCc1cc(OCCCCOc2ccc(C(=O)CC3CCCC3)c(O)c2C)ccc1O [compound 86]
EC50 (mGlu2): > 10 µM
EC50 (mGlu3): > 30 µM

COc1ccc(B2OC(C)(C)C(C)(C)O2)cc1OCCCCOc1ccc(C(=O)CC(C)(C)C)c(O)c1C [compound 87, 1-(2-Hydroxy-4-(4-(2-methoxy-5-(4,4,5,5-tetramethyl-1,3,2-dioxaborolan-2-yl)phenoxy)butoxy)-3-methylphenyl)-3,3-dimethylbutan-1-one]
Emax (mGlu2): 49.5 ± 3.5%
Emax (mGlu3): 24.9 ± 9.6%

COc1cc(C(=O)NO)ccc1OCCCCOc1ccc(C(=O)CC(C)(C)C)c(O)c1C [compound 88, 4-(4-(4-(3,3-Dimethylbutanoyl)-3-hydroxy-2-methylphenoxy)butoxy)-N-hydroxy-3-methoxybenzamide]
EC50 (mGlu2): 2.42 ± 0.278 µM
Emax (mGlu2): 86.4 ± 2.6%
EC50 (mGlu3): 5.46 ± 0.184 µM
Emax (mGlu3): 53.5 ± 10.6%

CONC(=O)c1ccc(OC)c(OCCCCOc2ccc(C(=O)CC(C)(C)C)c(O)c2C)c1 [compound 90, 3-(4-(4-(3,3-Dimethylbutanoyl)-3-hydroxy-2-methylphenoxy)butoxy)-N,4-dimethoxybenzamide]
EC50 (mGlu2): 3.89 ± 0.317 µM
Emax (mGlu2): 82.4 ± 3.4%
EC50 (mGlu3): 6.6 ± 1.45 µM
Emax (mGlu3): 78.7 ± 6.2%

COc1ccc(C#N)cc1OCCCCOc1ccc(C(=O)CC(C)(C)C)c(O)c1C [compound 91, 3-(4-(4-(3,3-Dimethylbutanoyl)-3-hydroxy-2-methylphenoxy)butoxy)-4-methoxybenzonitrile]
EC50 (mGlu2): > 10 µM
Emax (mGlu2): 48.2 ± 7.4%
EC50 (mGlu3): > 30 µM
Emax (mGlu3): 33.7 ± 7.4%

COc1ccc(-c2nnn[nH]2)cc1OCCCCOc1ccc(C(=O)CC(C)(C)C)c(O)c1C [compound 92, 1-(2-Hydroxy-4-(4-(2-methoxy-5-(1H-tetrazol-5-yl)phenoxy)butoxy)-3-methylphenyl)-3,3-dimethylbutan-1-one]
Emax (mGlu2): 91.2 ± 1.1%
Emax (mGlu3): 96.7 ± 4%

COc1ccc(C(=O)NS(C)(=O)=O)cc1OCCCCOc1ccc(C(=O)CC(C)(C)C)c(O)c1C [compound 93, 3-(4-(4-(3,3-Dimethylbutanoyl)-3-hydroxy-2-methylphenoxy)butoxy)-4-methoxy-N-(methylsulfonyl)benzamide]
EC50 (mGlu2): 0.25 ± 0.055 µM
Emax (mGlu2): 98.1 ± 1.1%
EC50 (mGlu3): 0.265 ± 0.05 µM
Emax (mGlu3): 110 ± 1.3%

Cc1c(OCCCCOc2ccc3c(c2)B(O)OC3)ccc(C(=O)CC(C)(C)C)c1O [compound 94, 1-(2-Hydroxy-4-(4-((1-hydroxy-1,3-dihydrobenzo [c][1,2]oxaborol-6-yl)oxy)butoxy)-3-methylphenyl)-3,3-dimethylbutan-1-one]
Emax (mGlu2): 83.9 ± 3.4%
Emax (mGlu3): 94 ± 3.8%

COc1ccc(B(O)O)cc1OCCCCOc1ccc(C(=O)CC(C)(C)C)c(O)c1C [compound 95, (3-(4-(4-(3,3-Dimethylbutanoyl)-3-hydroxy-2-methylphenoxy)butoxy)-4-methoxyphenyl)boronic acid]
EC50 (mGlu2): 3.01 ± 0.988 µM
Emax (mGlu2): 27.5 ± 2.7%
EC50 (mGlu3): > 30 µM
Emax (mGlu3): 26.2 ± 11.7%

COc1ccc(C(=O)O)cc1OCCCCOc1ccc(C(=O)CCC(C)(C)C)c(O)c1C [compound 96, 3-(4-(4-(4,4-Dimethylpentanoyl)-3-hydroxy-2-methylphenoxy)butoxy)-4-methoxybenzoic acid]
Emax (mGlu2): 88.6 ± 0.9%
Emax (mGlu3): 95.3 ± 5%

COc1ccc(/C(N)=N/O)cc1OCCCCOc1ccc(C(=O)CC(C)(C)C)c(O)c1C [compound 97, (Z)-3-(4-(4-(3,3-Dimethylbutanoyl)-3-hydroxy-2-methylphenoxy)butoxy)-N′-hydroxy-4-methoxybenzimidamide]
EC50 (mGlu2): > 10 µM
Emax (mGlu2): 57.2 ± 1.4%
EC50 (mGlu3): > 30 µM
Emax (mGlu3): 24.4 ± 4.7%

COc1ccc(-c2noc(=O)[nH]2)cc1OCCCCOc1ccc(C(=O)CC(C)(C)C)c(O)c1C [compound 98, 3-(3-(4-(4-(3,3-Dimethylbutanoyl)-3-hydroxy-2-methylphenoxy)butoxy)-4-methoxyphenyl)-1,2,4-oxadiazol-5(4H)-one]
EC50 (mGlu2): 0.681 ± 0.09 µM
Emax (mGlu2): 101 ± 2.9%
EC50 (mGlu3): 1.23 ± 0.185 µM
Emax (mGlu3): 102 ± 4.7%

COc1ccc(-c2noc(=S)[nH]2)cc1OCCCCOc1ccc(C(=O)CC(C)(C)C)c(O)c1C [compound 99, 1-(2-Hydroxy-4-(4-(2-methoxy-5-(5-thioxo-4,5-dihydro-1,2,4-oxadiazol-3-yl)phenoxy)butoxy)-3-methylphenyl)-3,3-dimethylbutan-1-one]
EC50 (mGlu2): 1.03 ± 0.07 µM
Emax (mGlu2): 81%
EC50 (mGlu3): 1.15 ± 0.307 µM
Emax (mGlu3): 63.6 ± 5%

COc1ccc(-c2nsc(=O)[nH]2)cc1OCCCCOc1ccc(C(=O)CC(C)(C)C)c(O)c1C [compound 100, 3-(3-(4-(4-(3,3-Dimethylbutanoyl)-3-hydroxy-2-methylphenoxy)butoxy)-4-methoxyphenyl)-1,2,4-thiadiazol-5(4H)-one]
EC50 (mGlu2): 2.22 ± 0.709 µM
Emax (mGlu2): 68.1 ± 0.9%
EC50 (mGlu3): > 30 µM
Emax (mGlu3): 33.9 ± 10.1%

COc1ccc(C(=O)N2CCOCC2)cc1OCCCCOc1ccc(C(=O)CC(C)(C)C)c(O)c1C [compound 101, 1-(2-Hydroxy-4-(4-(2-methoxy-5-(morpholine-4-carbonyl)phenoxy)butoxy)-3-methylphenyl)-3,3-dimethylbutan-1-one]
EC50 (mGlu2): 0.875 ± 0.003 µM
Emax (mGlu2): 113 ± 1.2%
EC50 (mGlu3): 0.741 ± 0.006 µM
Emax (mGlu3): 132 ± 5%

CNC(=O)c1ccc(OC)c(OCCCCOc2ccc(C(=O)CC(C)(C)C)c(O)c2C)c1 [compound 102, 3-(4-(4-(3,3-Dimethylbutanoyl)-3-hydroxy-2-methylphenoxy)butoxy)-4-methoxy-N-methylbenzamide]
EC50 (mGlu2): 5.16 ± 0.082 µM
Emax (mGlu2): 70.9 ± 2.3%
EC50 (mGlu3): > 10 µM
Emax (mGlu3): 39.2 ± 5.2%

CCN(CC)C(=O)c1ccc(OC)c(OCCCCOc2ccc(C(=O)CC(C)(C)C)c(O)c2C)c1 [compound 103, 3-(4-(4-(3,3-Dimethylbutanoyl)-3-hydroxy-2-methylphenoxy)butoxy)-N,N-diethyl-4-methoxybenzamide]
EC50 (mGlu2): 0.608 ± 0.01 µM
Emax (mGlu2): 96.4 ± 2.1%
EC50 (mGlu3): 0.497 ± 0.006 µM
Emax (mGlu3): 111 ± 3.4%

COc1ccc(C(=O)Nc2ccccc2)cc1OCCCCOc1ccc(C(=O)CC(C)(C)C)c(O)c1C [compound 104, 3-(4-(4-(3,3-Dimethylbutanoyl)-3-hydroxy-2-methylphenoxy)butoxy)-4-methoxy-N-phenylbenzamide]
Emax (mGlu2): 23.1 ± 1.4%
Emax (mGlu3): 27 ± 3.4%

COc1ccc(C(=O)N2CCNCC2)cc1OCCCCOc1ccc(C(=O)CC(C)(C)C)c(O)c1C [compound 105, 1-(2-Hydroxy-4-(4-(2-methoxy-5-(piperazine-1-carbonyl)phenoxy)butoxy)-3-methylphenyl)-3,3-dimethylbutan-1-one]
EC50 (mGlu2): > 10 µM
Emax (mGlu2): 67.4 ± 1.9%
EC50 (mGlu3): > 10 µM
Emax (mGlu3): 49.7 ± 3.9%
